From patent US8524755B2 (priority 2009, dated 2013) come the findings set out here.

In experiment [1] the target is T1, PDE2A (h) (Homo sapiens, UniProt O00408).
T1 construct: host or cells: Sf9 cells
As to the kind of experiment: Enzyme assay PDE2A (h). Type of experiment: biochemical. The conditions noted are these: read-out: % Inhibition of Control Values @ 10 μM. The text has this: (§1) The enzyme assays provided below will be familiar to those skilled in the art.
(§2) Analysis and Expression of Results: The results are expressed as a percent of control specific activity ((measured specific activity/control specific activity)×100) obtained in the presence of the test compounds.

Experiment [2] has as its system KV channel. The experiment is described as follows: Binding KV channel (aa). More on the design: species or system rat. As to the method:
(§3) Radioligand binding assay methods utilized to measure the activity of compounds of the invention will be familiar to those skilled in the art. In each assay case, the assay components such as, for example, the cell-type, ligand, reference compound and the like, will be familiar to practitioners of such an assay.
(§4) Analysis and Expression of Results: Compounds of the invention were tested in the biochemical assays and percent inhibition of specific binding was determined. The specific ligand binding to the receptors is defined as the difference between the total binding and the nonspecific binding determined in the presence of an excess of unlabelled ligand. The results are expressed as a percent inhibition of control specific binding (100−((measured specific binding/control specific binding)×100)) obtained in the presence of test compounds.

For experiment [3], the target named is T2, guanylyl cyclase (basal) (Bos taurus, UniProt P16068+P19687).
T2 construct: bovine lung; from tissue; host or cells: bovine lung
T2 sequence (P19687 1-691): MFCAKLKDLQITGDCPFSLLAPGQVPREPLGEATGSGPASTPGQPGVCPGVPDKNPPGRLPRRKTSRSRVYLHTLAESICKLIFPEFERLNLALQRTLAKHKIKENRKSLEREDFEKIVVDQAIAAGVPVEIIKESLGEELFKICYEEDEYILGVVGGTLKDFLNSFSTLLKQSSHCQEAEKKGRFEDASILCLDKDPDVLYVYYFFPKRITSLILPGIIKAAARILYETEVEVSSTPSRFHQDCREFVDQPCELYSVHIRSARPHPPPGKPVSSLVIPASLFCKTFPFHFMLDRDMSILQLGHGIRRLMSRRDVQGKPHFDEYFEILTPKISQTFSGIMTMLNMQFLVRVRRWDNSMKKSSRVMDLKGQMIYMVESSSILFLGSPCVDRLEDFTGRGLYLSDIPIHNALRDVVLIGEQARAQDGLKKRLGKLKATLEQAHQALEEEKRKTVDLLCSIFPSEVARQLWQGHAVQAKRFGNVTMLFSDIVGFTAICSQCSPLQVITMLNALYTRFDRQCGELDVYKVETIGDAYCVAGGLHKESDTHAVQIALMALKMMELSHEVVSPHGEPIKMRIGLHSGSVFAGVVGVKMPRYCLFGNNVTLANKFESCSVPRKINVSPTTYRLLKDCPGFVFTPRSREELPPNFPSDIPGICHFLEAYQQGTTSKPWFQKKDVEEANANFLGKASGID
T2 sequence (P16068 1-619): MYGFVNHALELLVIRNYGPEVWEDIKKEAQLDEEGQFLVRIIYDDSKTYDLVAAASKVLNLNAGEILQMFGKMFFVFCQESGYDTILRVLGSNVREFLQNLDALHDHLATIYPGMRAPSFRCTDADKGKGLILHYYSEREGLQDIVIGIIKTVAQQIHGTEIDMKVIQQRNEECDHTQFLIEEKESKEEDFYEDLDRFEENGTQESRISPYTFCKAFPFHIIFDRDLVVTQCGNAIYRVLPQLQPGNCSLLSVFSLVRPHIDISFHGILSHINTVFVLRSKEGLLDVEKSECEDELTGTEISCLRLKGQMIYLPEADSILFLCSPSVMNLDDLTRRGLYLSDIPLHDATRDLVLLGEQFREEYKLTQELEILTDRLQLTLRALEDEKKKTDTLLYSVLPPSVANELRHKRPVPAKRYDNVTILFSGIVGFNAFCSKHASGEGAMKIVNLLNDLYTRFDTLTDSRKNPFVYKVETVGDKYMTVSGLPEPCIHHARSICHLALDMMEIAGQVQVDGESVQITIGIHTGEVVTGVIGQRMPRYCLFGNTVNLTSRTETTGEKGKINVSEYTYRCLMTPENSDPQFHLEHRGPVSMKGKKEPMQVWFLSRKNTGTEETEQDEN
As to the kind of experiment: Enzyme assay guanylyl cyclase (basal). It is filed as biochemical, bovine.
Excerpt: as §1, §2

For experiment [4], the target named is T3, acetylcholinesterase (h) (Homo sapiens, UniProt P22303).
T3 construct: host or cells: HEK-293 cells
T3 sequence (P22303 32-614): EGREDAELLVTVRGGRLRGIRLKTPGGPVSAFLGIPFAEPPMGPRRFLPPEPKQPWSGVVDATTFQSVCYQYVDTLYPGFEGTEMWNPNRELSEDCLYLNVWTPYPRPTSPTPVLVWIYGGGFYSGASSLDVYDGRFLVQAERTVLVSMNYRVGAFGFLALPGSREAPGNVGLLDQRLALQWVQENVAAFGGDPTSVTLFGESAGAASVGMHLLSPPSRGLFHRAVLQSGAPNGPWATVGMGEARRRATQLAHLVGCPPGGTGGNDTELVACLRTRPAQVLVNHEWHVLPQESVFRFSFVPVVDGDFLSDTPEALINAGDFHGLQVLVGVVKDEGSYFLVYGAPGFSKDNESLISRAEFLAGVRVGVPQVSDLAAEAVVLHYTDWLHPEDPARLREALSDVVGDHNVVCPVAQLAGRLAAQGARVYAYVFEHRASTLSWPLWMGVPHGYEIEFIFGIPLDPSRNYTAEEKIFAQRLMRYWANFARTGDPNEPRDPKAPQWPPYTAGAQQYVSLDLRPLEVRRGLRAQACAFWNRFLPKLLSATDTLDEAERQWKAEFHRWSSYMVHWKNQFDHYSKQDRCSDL
As to the kind of experiment: Enzyme assay acetylcholinesterase (h). The conditions noted are these: read-out: % Inhibition of Control Values @ 10 μM. It is filed as biochemical.
Excerpt: as §1, §2

Experiment [5] concerns the target T4, Histamine H1 (h) (Homo sapiens, UniProt P35367).
T4 construct: expressed in transfected cells; host or cells: HEK-293 cells
As to the kind of experiment: Binding H1 (h) (aa). The conditions noted are these: read-out: % Inhibition of Control Specific Binding @ 10 μM. As to the method:
as §3, §4

The target in experiment [6] is T5, Adenosine A2A (h) (Homo sapiens, UniProt P29274).
T5 construct: expressed in transfected cells; host or cells: HEK-293 cells
T5 sequence (P29274 whole entry): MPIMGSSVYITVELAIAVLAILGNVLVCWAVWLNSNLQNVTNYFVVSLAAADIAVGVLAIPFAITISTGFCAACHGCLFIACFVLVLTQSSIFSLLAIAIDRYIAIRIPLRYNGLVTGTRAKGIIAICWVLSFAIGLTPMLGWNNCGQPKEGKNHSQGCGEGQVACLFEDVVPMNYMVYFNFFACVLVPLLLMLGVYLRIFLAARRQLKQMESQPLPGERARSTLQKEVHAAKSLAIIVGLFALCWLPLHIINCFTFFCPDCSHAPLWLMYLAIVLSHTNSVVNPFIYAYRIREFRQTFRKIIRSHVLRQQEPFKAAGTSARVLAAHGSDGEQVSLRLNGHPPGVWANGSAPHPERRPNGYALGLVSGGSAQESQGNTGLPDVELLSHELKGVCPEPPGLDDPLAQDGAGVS
As to the kind of experiment: Binding A2A (h) (ag). The conditions noted are these: read-out: % Inhibition of Control Specific Binding @ 10 μM. Here is the method: as §3, §4

Experiment [7] has as its target T6, Corticotropin Releasing Factor CRF1 (h) (Homo sapiens, UniProt P34998).
T6 construct: expressed in transfected cells; host or cells: CHO cells
T6 sequence (P34998 24-415): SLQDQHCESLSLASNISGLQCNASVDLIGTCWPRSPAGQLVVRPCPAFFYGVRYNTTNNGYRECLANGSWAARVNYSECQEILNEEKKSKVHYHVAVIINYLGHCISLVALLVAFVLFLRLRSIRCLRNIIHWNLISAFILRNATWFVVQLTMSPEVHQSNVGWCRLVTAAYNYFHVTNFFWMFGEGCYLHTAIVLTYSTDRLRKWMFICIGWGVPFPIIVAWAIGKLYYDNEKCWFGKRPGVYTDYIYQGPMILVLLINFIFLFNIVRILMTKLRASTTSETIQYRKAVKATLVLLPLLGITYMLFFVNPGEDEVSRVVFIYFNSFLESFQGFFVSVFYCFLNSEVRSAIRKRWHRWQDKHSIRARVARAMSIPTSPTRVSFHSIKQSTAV
As to the kind of experiment: Binding CRF1 (h) (ag). The conditions noted are these: read-out: % Inhibition of Control Specific Binding @ 10 μM. As to the method: as §3, §4

Experiment [8] concerns adenylyl cyclase (basal). The experiment is described as follows: Enzyme assay adenylyl cyclase (basal). It is filed as biochemical, rat.
Excerpt: as §1, §2

T1 sequence (O00408 whole entry): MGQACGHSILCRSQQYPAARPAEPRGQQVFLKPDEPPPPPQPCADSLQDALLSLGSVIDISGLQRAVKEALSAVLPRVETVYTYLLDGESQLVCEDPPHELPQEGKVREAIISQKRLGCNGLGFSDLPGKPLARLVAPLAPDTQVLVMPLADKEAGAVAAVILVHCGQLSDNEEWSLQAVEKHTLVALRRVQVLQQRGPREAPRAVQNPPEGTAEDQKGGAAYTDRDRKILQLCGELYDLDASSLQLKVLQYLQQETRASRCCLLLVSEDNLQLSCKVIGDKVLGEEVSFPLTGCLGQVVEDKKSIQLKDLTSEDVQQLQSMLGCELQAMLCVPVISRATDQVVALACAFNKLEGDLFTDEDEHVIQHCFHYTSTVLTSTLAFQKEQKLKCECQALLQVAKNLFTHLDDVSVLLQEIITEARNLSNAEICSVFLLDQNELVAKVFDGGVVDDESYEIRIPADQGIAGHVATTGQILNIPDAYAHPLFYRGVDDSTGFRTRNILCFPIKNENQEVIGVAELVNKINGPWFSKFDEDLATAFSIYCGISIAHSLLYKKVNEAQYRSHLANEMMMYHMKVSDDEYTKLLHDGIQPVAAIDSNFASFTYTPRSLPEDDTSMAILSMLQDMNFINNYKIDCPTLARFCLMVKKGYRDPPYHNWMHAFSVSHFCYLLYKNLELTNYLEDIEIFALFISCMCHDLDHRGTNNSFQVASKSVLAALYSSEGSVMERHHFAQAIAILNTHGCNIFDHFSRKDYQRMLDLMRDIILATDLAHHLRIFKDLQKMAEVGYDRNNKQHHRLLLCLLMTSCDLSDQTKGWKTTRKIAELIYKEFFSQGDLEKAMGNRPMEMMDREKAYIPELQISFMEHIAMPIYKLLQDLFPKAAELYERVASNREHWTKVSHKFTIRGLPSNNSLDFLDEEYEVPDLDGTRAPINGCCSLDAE
T4 sequence (P35367 whole entry): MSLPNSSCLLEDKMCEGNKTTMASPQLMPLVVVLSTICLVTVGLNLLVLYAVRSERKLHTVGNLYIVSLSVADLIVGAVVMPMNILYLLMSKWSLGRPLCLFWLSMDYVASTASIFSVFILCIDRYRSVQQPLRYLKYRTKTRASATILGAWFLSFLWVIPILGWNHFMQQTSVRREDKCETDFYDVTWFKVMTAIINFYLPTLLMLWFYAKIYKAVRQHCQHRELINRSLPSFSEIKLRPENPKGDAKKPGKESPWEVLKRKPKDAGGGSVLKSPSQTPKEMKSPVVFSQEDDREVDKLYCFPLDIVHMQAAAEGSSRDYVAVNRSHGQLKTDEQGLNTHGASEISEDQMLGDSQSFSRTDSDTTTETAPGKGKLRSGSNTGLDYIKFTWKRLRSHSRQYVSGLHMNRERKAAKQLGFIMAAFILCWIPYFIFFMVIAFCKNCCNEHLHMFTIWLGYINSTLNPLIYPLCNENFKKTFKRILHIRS

Take `CC1(C)C(=O)N(c2ccc(C#N)c(C(F)(F)F)c2)C(=S)N1c1ccc(C(=O)O)c(F)c1` [(MI), 4-(3-(4-cyano-3-(trifluoromethyl)phenyl)-5,5-dimethyl-4-oxo-2-thioxoimidazolidin-1-yl)-2-fluorobenzoic acid]: the inhibition at 10 µM in experiment [1] was 12%; in experiment [4], 51%; in experiment [5], -8%; in experiment [6], 10%; in experiment [7], -4%. In experiment [2], the “% Inhibition of Control Specific Binding @ 10 μM” value (“% Inhibition” for short) was −2%. Further, the “% Stimulation Relative to Control @ 10 μM” value in experiment [3] and in experiment [8] was 0% in each case.

Regarding `CC1(C)C(=O)N(c2ccc(C#N)c(C(F)(F)F)c2)C(=S)N1c1ccc(C(N)=O)c(F)c1` [(MII), 4-(3-(4-Cyano-3-(trifluoromethyl)phenyl)-5,5-dimethyl-4-oxo-2-thioxoimidazolidin-1-yl)-2-fluorobenzamide], the inhibition at 10 µM in experiment [1] was 2%; in experiment [4], 9%; in experiment [5] it was 2%; in experiment [6], -5%; in experiment [7], 1%. The “% Inhibition” value in experiment [2] was −3%. Also, the figures for the “% Stimulation Relative to Control @ 10 μM” value in experiment [3] and in experiment [8] were 0% and 3%, respectively.

Regarding `CC1(C)C(=O)N(c2ccc(C#N)c(C(F)(F)F)c2)C(=O)N1c1ccc(C(N)=O)c(F)c1` [(MIII), 4-(3-(4-cyano-3-(trifluoromethyl)phenyl)-5,5-dimethyl-2,4-dioxoimidazolidin-1-yl)-2-fluorobenzamide], the inhibition at 10 µM in experiment [1] is 2%; in experiment [4] it was -1%; in experiment [5], -2%; in experiment [6], 2%; in experiment [7] it was -9%. In addition, in experiment [2], the “% Inhibition” value is −2%. The “% Stimulation Relative to Control @ 10 μM” value is given as −1% in experiment [3] and 4% in experiment [8].

Take `CNC(=O)c1ccc(N2C(=O)N(c3ccc(C#N)c(C(F)(F)F)c3)C(=O)C2(C)C)cc1F` [(MIV), 4-(3-(4-cyano-3-(trifluoromethyl)phenyl)-5,5-dimethyl-2,4-dioxoimidazolidin-1-yl)-2-fluoro-N-methylbenzamide]: the inhibition at 10 µM was 0% in experiment [1]; 23% in experiment [4]; -11% in experiment [5]; 3% in experiment [6]; -23% in experiment [7]. Moreover, the “% Inhibition” value in experiment [2] is listed as −4%. In addition, the “% Stimulation Relative to Control @ 10 μM” value in experiment [3] was 2%; in experiment [8], 11%.
